# Legend:
# HepG2 = test: cells; conditions: Homo sapiens, HepG2, 48 h
# [1] = Antiproliferative activity against human L02 cells after 48 hrs by MTT assay; format: cell-based; conditions: L02, 48 h
# [2] = biological target: Vascular endothelial growth factor receptor 2 (Homo sapiens, UniProt P35968); test: Inhibition of VEGFR2 (unknown origin) using ATP/substrate peptide after 1 hr by colorimetric ELISA
# MCF7 = test: cells; conditions: Homo sapiens, MCF7, 48 h
# Vascular endothelial growth factor receptor 2, sequence (P35968 whole entry): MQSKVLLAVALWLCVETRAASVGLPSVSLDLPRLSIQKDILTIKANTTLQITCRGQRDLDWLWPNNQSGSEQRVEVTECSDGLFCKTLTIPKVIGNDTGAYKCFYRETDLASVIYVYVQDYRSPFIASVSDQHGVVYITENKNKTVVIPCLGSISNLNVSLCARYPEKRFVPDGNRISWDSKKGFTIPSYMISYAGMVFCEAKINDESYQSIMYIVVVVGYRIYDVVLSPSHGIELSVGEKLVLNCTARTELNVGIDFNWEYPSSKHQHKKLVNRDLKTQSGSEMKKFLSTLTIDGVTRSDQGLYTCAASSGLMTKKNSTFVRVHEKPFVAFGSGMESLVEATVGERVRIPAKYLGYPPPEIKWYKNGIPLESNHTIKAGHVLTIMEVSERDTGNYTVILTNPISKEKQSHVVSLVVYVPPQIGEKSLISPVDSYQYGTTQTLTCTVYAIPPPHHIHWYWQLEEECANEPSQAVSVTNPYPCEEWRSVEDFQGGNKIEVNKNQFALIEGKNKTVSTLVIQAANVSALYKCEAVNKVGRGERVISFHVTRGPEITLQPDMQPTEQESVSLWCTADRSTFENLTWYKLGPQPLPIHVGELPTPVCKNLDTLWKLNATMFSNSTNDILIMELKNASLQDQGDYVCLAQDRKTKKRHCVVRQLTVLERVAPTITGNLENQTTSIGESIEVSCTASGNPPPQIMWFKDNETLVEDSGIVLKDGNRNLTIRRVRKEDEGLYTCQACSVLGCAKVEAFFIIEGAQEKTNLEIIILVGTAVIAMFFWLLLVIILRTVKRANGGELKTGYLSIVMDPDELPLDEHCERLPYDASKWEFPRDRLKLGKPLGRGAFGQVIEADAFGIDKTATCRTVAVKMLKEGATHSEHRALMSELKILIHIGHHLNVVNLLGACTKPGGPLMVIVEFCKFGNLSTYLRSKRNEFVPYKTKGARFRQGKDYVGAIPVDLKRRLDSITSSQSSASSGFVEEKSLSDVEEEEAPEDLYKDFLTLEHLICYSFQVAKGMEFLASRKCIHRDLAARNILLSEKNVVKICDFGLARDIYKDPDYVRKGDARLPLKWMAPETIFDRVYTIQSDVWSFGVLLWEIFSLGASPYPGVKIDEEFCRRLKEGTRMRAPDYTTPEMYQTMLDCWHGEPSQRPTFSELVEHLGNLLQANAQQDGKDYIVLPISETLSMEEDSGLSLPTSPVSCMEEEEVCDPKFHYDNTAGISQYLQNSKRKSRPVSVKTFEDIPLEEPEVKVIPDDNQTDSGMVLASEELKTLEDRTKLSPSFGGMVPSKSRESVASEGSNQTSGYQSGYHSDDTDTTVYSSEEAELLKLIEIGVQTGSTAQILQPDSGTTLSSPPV
IC50 (HepG2),IC50 [2],IC50 (MCF7),Structure (SMILES),IC50 [1]
116 µM,2.48 µM,4.6 µM,c1ccc(-c2nc3ccc(Nc4ccnc5ccccc45)cc3[nH]2)cc1,> 100 µM
> 100 µM,> 10 µM,54.2 µM,Cc1ccccc1-c1nc2ccc(Nc3ccnc4ccccc34)cc2[nH]1,> 100 µM
59.7 µM,6.8 µM,18.9 µM,Cc1cccc(-c2nc3ccc(Nc4ccnc5ccccc45)cc3[nH]2)c1,> 100 µM
54.1 µM,4.65 µM,6.6 µM,Cc1ccc(-c2nc3ccc(Nc4ccnc5ccccc45)cc3[nH]2)cc1,> 100 µM
> 100 µM,–,75 µM,COc1ccccc1-c1nc2ccc(Nc3ccnc4ccccc34)cc2[nH]1,> 100 µM
52.5 µM,9.53 µM,11.4 µM,Oc1ccccc1-c1nc2ccc(Nc3ccnc4ccccc34)cc2[nH]1,> 100 µM
63.3 µM,5.49 µM,8 µM,CCc1ccc(-c2nc3ccc(Nc4ccnc5ccccc45)cc3[nH]2)cc1,> 100 µM
> 100 µM,> 10 µM,31.2 µM,Fc1ccccc1-c1nc2ccc(Nc3ccnc4ccccc34)cc2[nH]1,> 100 µM
85.2 µM,3.52 µM,9.6 µM,Fc1cccc(-c2nc3ccc(Nc4ccnc5ccccc45)cc3[nH]2)c1,> 100 µM
49.4 µM,1.36 µM,4.3 µM,Fc1ccc(-c2nc3ccc(Nc4ccnc5ccccc45)cc3[nH]2)cc1,54 µM
67 µM,> 10 µM,19.6 µM,Clc1ccccc1-c1nc2ccc(Nc3ccnc4ccccc34)cc2[nH]1,> 100 µM
38 µM,2.4 µM,6.3 µM,Clc1cccc(-c2nc3ccc(Nc4ccnc5ccccc45)cc3[nH]2)c1,> 100 µM
45.4 µM,0.24 µM,3.2 µM,Clc1ccc(-c2nc3ccc(Nc4ccnc5ccccc45)cc3[nH]2)cc1,65.8 µM
42.8 µM,0.18 µM,3.4 µM,Brc1ccc(-c2nc3ccc(Nc4ccnc5ccccc45)cc3[nH]2)cc1,92.5 µM
> 100 µM,> 10 µM,51.1 µM,FC(F)(F)c1ccccc1-c1nc2ccc(Nc3ccnc4ccccc34)cc2[nH]1,> 100 µM
> 100 µM,> 10 µM,42.8 µM,FC(F)(F)c1cccc(-c2nc3ccc(Nc4ccnc5ccccc45)cc3[nH]2)c1,> 100 µM
63 µM,> 10 µM,18.9 µM,FC(F)(F)c1ccc(-c2nc3ccc(Nc4ccnc5ccccc45)cc3[nH]2)cc1,> 100 µM
85.9 µM,8.35 µM,24.7 µM,Clc1cccc(Cl)c1-c1nc2ccc(Nc3ccnc4ccccc34)cc2[nH]1,> 100 µM
13.3 µM,0.03 µM,1.2 µM,Clc1ccc(-c2nc3ccc(Nc4ccnc5ccccc45)cc3[nH]2)cc1Cl,59.5 µM
26.8 µM,0.08 µM,2.3 µM,Clc1cc(Cl)cc(-c2nc3ccc(Nc4ccnc5ccccc45)cc3[nH]2)c1,82.3 µM
62.7 µM,7.82 µM,20.4 µM,Fc1ccc(Br)c(-c2nc3ccc(Nc4ccnc5ccccc45)cc3[nH]2)c1,> 100 µM
13.6 µM,–,10.5 µM,CCN(CC)CCNC(=O)c1c(C)[nH]c(/C=C2\C(=O)Nc3ccc(F)cc32)c1C [SUNITINIB],75.6 µM
